{"source": "patent US20100113599A1", "about": "“AMPHIPATHIC CARBOXYLATES FOR THE TREATMENT OF IMMUNE-RELATED DISORDERS” (Syndromex Ltd. c/o Yissum Research Development Company, of, priority 2007, published 2010)", "key": {"STAT3": {"system": "STAT3", "assay": "LIF- or IL-6-induced STAT3 phosphorylation in HepG2 cells (Western blot)", "format": "cell-based, human", "experimental": "MEDICA drugs inhibit LIF-induced STAT3 phosphorylation. HepG2 cells were incubated with M16αα (200 μM) for 17 and 24 h. At each time point LIF (20 ng/ml) was added for the last 20 minutes (for protein) or for the last 3 h (for mRNA). Western blots of cell lysates were reacted with anti gp130 and anti P-STAT3 (Y705) antibodies and normalized by β-actin.\nMEDICA drugs inhibit IL-6-induced STAT3 phosphorylation. HepG2 cells were incubated for 40 h with […] M16αα. IL-6 (20 ng/ml) was added for the last 15 h. Western blots of cell lysates were reacted, with anti GP-130, anti STAT3, anti P-STAT3 (Y705) and anti P-STAT3 (S727) antibodies and normalized by β-actin. Abbreviations: cont. (control), dim. (dimer), Tot. (total), mono. (monomer).\nThe examined effect of MEDICA drugs on expression of APP, was further analyzed by analyzing the effect of M16αα on downstream elements in the signaling pathway leading to expression of APP. Signal Transducers and Activators of Transcription 3 (STAT3), is a transcription factor phosphorylated by JAK kinases in response to cytokine activation of a cell surface receptor tyrosine kinases. Cytokines that activate STAT3 include growth hormone, IL-6 family cytokines, Oncostatin, LIF, CNTF and G-CSF, Leptin and others. As illustrated by FIG. 1, upon cytokine activation, the STAT3 proteins dimerize and are localized to the nucleus where they activate transcription of APP as well as of other cytokine-responsive genes coding for cell survival, growth and proliferation. Therefore, the inventors next examined whether the effect of MEDICA drugs on the expression of APP is a result of interfering with STAT3 transcription activity or whether MEDICA drugs are involved in a more upstream element of the transduction pathway such as the gp130 receptor. Since dimerization and activation of STAT3 is dependent on its phosphorylation in both, tyrosine 705 (pY^705) and serine 727 (pS^727) residues, the inventors next examined the effect of M16αα on the phosphorylation of STAT3. Thus, HepG2 cells were incubated with M16αα (200 μM) for 17 and 24 h. […]"}, "HT29 colon cancer cells [1]": {"system": "HT29 colon cancer cells", "assay": "HT29 cell number, trypan blue exclusion assay", "format": "cell-based", "conditions": "200 μM, days 1, 2, 3 and 6", "experimental": "Abbreviations: D. (days) cont, (control), RCN (relative cell number).\n(§1) Cells were cultured in Dulbecco's Modified Eagle Medium (DMEM) supplemented with 10% fetal calf serum, glutamine and antibiotics (100,000 units/L penicillin and 100 mg/L streptomycin sulfate).\n(§2) The involvement of MEDICA drugs in signal transduction pathways related to immuno-modulatory mechanisms have led the inventors to further investigate the effect of the MEDICA drugs in different disorders associated with abnormal immune reaction. Since cancerous processes may be promoted as a result of interruption of the Th1/Th2 balance, the possible beneficial effect of the MEDICA drugs on tumor proliferation and progression have been next examined. The effect of different concentrations M16αα on cell proliferation was first examined in vitro using the HT29 colon cancer cells as a model for colon cancer. Cells were cultured in the presence of different concentrations of M16αα (50, 100, and 200 μM). Samples obtained from days 1, 2, 3 and 6 were analyzed for cell number using the trypan blue exclusion assay. Proliferation was measured by BrdU incorporation assay."}, "HT29 colon cancer cells [2]": {"system": "HT29 colon cancer cells", "assay": "BrdU incorporation assay in HT29 colon cancer cells", "format": "cell-based", "conditions": "200 μM", "experimental": "as §1, §2"}, "fibrinogen α mRNA": {"system": "fibrinogen α mRNA", "assay": "Fibrinogen mRNA expression in IL-6-stimulated HepG2 cells (real time RT-PCR)", "format": "cell-based, human", "conditions": "200 mM M16αα 40 h, control as well as IL-6 (20 ng/ml, last 15 h) induced cells, normalized by GAPDH", "experimental": "HepG2 cells were incubated for 40 h with […] M16αα. IL-6 (20 ng/ml) was added for the last 15 h. Total RNA was prepared and was analyzed by real time RT-PCR for fibrinogen a mRNA. Transcript levels were normalized by GAPDH.\nThe hypolipidemic effect of both M16ααα and/or M16ββ (MEDICA drugs) and its application in the treatment of Metabolic Syndrome, led the inventors to try and examine the effect of these drugs on another crucial risk factor in Metabolic Syndrome CVD patients, namely, the inflammatory indications. These indications are identified by markers like C-reactive protein (CRP), Serum amyloid A (SAA), fibrinogen and ICAM that promote atherosclerotic CVD. To evaluate the possible anti-inflammatory effect of MEDICA drugs, the inventors first examined the effect of M16αα, on the expression of different acute phase proteins (APP). Human liver cells (HepG2 cells) were stimulated with IL-6 and incubated with the MEDICA drug, M16αα. Total RNA was analyzed by real time PCR for expression of mRNA of different acute phase proteins (APP)."}, "RPMI8226 cells": {"system": "RPMI8226 cells", "assay": "Cell cycle arrest markers in MM RPMI8226 cells (Western blot)", "format": "cell-based", "conditions": "200 μM, 24 h", "experimental": "Cell Cycle arrest of MM RPMI8226 by M16αα. RPMI8226 cells were cultured with 200 μM M16αα, in RPMI 1640 medium with 10% FCS for 24 h, lysed, Western blotted and reacted with anti p-P53(S15) and p-Rb as indicated."}, "[3]": {"system": "liver APP (SAP, SAA, α-fibrinogen) and IL-6 gene expression", "assay": "Liver Acute Phase Proteins and IL-6 gene expression in EAE mice (real time PCR)", "format": "in vivo", "conditions": "EAE mice 60 mg/kg/day 12 days by gavage", "experimental": "To further investigate the preventive potential of MEDICA drugs, and specifically of M16αα on EAE model, the effect of these drugs on different pathways involving activation of the immune system have been next examined. Therefore, female mice were treated with M16αα (60 mg/kg/day) or vehicle (1% CMC, the control group) for 12 days by gavage. On the third day EAE has been induced by injection of the MOG35-55 peptide. Nine days following MOG35-55 peptide immunization, mice were anesthesized and sacrificed. Spleenocytes were prepared and were stimulated in vitro with either MOG (100 μg/ml) or LPS (50 μg/ml) and the activation of STAT3 was analyzed by Western blot using anti p-STAT3 (Y705) and anti GP130 antibodies. Liver was immediately frozen in liquid nitrogen and kept at −70 until used for protein and RNA preparation. Total RNA was prepared and analyzed by real time PCR for SAP, SAA, α-fibrinogen and IL-6 gene expression."}, "[4]": {"conditions": "200 mM M16αα 40 h, IL-6 20 ng/ml last 15 h"}}}
{"compound": "CC(C)(CCCCCCCCCCCCC(C)(C)C(=O)O)C(=O)O", "note": "[M16αα, 2,2,15,15-tetramethyl-hexadecanedioic acid]", "values": [{"measurement": "LIF-induced phosphorylation of tyrosine 705 residue of STAT3", "setting": "STAT3; 200 μM for 17 and 24 h, LIF 20 ng/ml", "result": "clearly inhibits"}, {"measurement": "expression of STAT3 (total STAT3)", "setting": "STAT3; [4]", "result": "not affected"}, {"measurement": "phosphorylation of STAT3 serine 727 residue", "setting": "STAT3; [4]", "result": "significantly inhibited"}, {"measurement": "cell number (relative cell number)", "setting": "HT29 colon cancer cells [1]", "result": "significant reduction"}, {"measurement": "BrdU incorporation", "setting": "HT29 colon cancer cells [2]", "result": "significantly reduces"}, {"measurement": "fibrinogen mRNA levels", "setting": "fibrinogen α mRNA", "result": "clearly reduced"}, {"measurement": "phosphorylated Rb", "setting": "RPMI8226 cells", "result": "reduction"}, {"measurement": "phosphorylated p53", "setting": "RPMI8226 cells", "result": "increase"}, {"measurement": "liver APP and IL-6 gene expression", "setting": "[3]", "result": "robustly suppressed"}]}
